Entries after “also recorded” stand apart in the source; their conditions may differ.
Tests used:
[1] = tested on: visceral pain perception; test: Rat model of visceral pain perception (colorectal distension, AWR score); type: in vivo; conditions: 0.8 mL colorectal distention; glibenclamide 10 mg/kg i.p. 30 min before; FIG. 3
Description: A rat model of visceral pain perception, a pre-clinical model of irritable bowel syndrome, was used in the following example. Rats (male, Wistar, 200-250 g, obtained from Charles River, Monza, Italy), were housed in plastic cages and maintained under controlled conditions with 12-hours light/dark cycle with lights on at 7.00 AM. Tap water and standard laboratory chow were freely available. Before experiments, rats were individually trained by spending 2-3 hours per day in a plexiglass cage for 2-3 days. It allowed them to adjust to a movement-restriction environment. Food was withheld for 12 hours before colorectal distension (CRD) recording were performed. Experiments were performed in awake rats and were conducted in a blind manner in that the observer was not aware of the identity of drug administered to each animal.
In the testing day, rats were sedated with ether inhalation and a 2 cm long latex balloon was inserted intrarectally 2 cm from the anal verge and fixed at the base of the tail. The balloon was connected via a double-barreled cannula to a pressure transducer to continuously monitoring the rectal pressure by a computer (PowerLab PC, A.D. Instruments, Milford, Mass., USA) and to a syringe for inflation/deflation of the balloon. The rats were then housed in a small cage (20×8×8 cm) on an elevated Plexiglas™ platform and allowed to wake up and adapt for 1 hour. After recovery from sedation, animals underwent the CRD procedure and behavioral responses were tested. The night before the experiments, the balloons were inflated and left overnight so the latex stretched and the balloons became compliant.
CRD of 20 seconds, performed every 5 minutes, was applied in increment of 0.4 ml starting from 0.4 ml up to 1.6 ml water. To achieve an accurate measurement of the colonic parameters and perception, the distensions were repeated twice for each intensity and data for each animal were averaged for analysis. Each animal underwent a double set of CRD. Twenty minutes after the first sequence of CRD (0.4 mL-1.6 ml water), drugs were administered intraperitoneally (i.p.) and a second set of CRD was performed. Behavioral responses during the first and the second set of CRD were assessed and compared.
Behavioral response to CRD was assessed by measuring the abdominal withdrawal reflex (AWR) using a semiquantitative score (1).
A rat model of visceral pain perception as described above was used to compare pain perception scores for 5-amino-2-(4-thiocarbamoyl-phenoxycarbonyloxy)-benzoic acid (Compound XXVII) with or without glibenclamide, an inhibitor of ATP-sensitive K^+ (KATP) channels.
Experiments were carried out as described in Example 13, except that groups of 5 rats each were treated with vehicle, trimebutine maleate (10 mg/kg), or with equimolar doses of trimebutine thiocarbamoylbenzoate (Compound III) or thiocarbamolybenzoate alone.

[2] = patients after usual doses; Dig. Dis. Sci. 1989; 34: 573-578; cited from earlier work
[3] = molecular target: T1, COX-2 (Rattus norvegicus, UniProt P35355); test: Rat airpouch assay, exudate PGE2 after zymosan; type: in vivo; conditions: 60 μmol/kg; versus vehicle; FIG. 15
T1 construct: from tissue; host or cells: rat subcutaneous airpouch exudate, in vivo, zymosan-induced
T1 sequence (P35355 18-604): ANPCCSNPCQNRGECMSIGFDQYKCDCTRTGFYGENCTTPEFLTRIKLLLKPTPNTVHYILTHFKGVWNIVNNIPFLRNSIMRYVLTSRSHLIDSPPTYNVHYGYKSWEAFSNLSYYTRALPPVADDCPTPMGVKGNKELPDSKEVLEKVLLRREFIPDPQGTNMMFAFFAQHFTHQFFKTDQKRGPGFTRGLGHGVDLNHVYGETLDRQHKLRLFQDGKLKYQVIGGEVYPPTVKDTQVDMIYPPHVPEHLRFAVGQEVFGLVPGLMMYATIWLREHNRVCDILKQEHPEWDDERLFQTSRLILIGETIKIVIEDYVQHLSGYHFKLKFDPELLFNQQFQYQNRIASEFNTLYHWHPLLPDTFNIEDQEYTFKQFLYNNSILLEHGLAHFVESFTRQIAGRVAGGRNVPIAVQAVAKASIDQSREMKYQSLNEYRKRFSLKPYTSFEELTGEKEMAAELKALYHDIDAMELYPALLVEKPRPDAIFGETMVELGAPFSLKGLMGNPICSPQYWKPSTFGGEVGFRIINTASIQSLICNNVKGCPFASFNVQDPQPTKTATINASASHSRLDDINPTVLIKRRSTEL
Description: Briefly, a subcutaneous “pouch” is created by repeated injections of air over several days. Once established, inflammation in the pouch can be induced by injection of 1 mL of 1% zymosan. […] Another group of 5 rats was treated with the vehicle, but received an injection of 0.9% sterile saline into the pouch rather than zymosan.
(§1) Each group consisted of 5 rats.

[4] = hypertensive rats, 60 μmol/kg intraperitoneal bolus, 60 minutes; FIG. 18
[5] = tested on: gastric damage; test: Gastric damage score 3 h after oral dosing; type: in vivo, rat; conditions: oral, 3 h; diclofenac 20 mg/kg or equimolar doses (Compound XVII 27.3 mg/kg, TBZ 7.3 mg/kg); FIG. 8
Source text: There were 5 rats in each group.
as §1

[6] = tested on: carrageenan-induced paw edema; test: Carrageenan hindpaw edema model; type: in vivo, rat; conditions: oral 30 min prior to carrageenan; diclofenac 1, 3 or 10 mg/kg; Compound XVII equimolar to diclofenac 3 mg/kg; FIG. 14
Description: Male, Wistar rats weighing 175-200 g were given the test compounds orally 30 min prior to subplantar injection of 100 ul of 1% lambda carrageenan.

[7] = tested on: leukocyte adherence to the vascular endothelium; test: Leukocyte adherence after NSAID or derivative, intravital microscopy (Example 21); type: in vivo, rat; conditions: comment on Table 2
Source text: (§2) Briefly, post-capillary mesenteric venules in anestheitized rats are examined under a light microscope.

[8] = tested on: gastric damage; test: Incidence of gastric damage at end of the leukocyte adherence experiment
Source text: as §2

[9] = tested on: gastric ulcers; test: Healing of acetic acid-induced gastric ulcers; type: in vivo, rat; conditions: oral twice-daily for 4 days; 30 μmol/kg (naproxen, Compound XX 60 μmol/kg); FIG. 17
Description: Gastric ulcers were induced via serosal application of acetic acid, as described by Elliott et al., A nitric oxide-releasing nonsteroidal anti-inflammatory drug accelerates gastric ulcer healing in rats. […] After 4 days of such treatment, the rats were euthanized and the stomach was excised and photographed. The area (in mm^2) of the ulcer was determined planimetrically by an individual unaware of the treatments given to the rats.

[10] = H2S generation in buffer and liver homogenate (Example 24); type: in vitro ADME; conditions: 1 mM, FIG. 19
Description: Two ml of an assay reaction mixture was introduced in to ice-cold 250 μl of NaOH 0.1 N in a sealed 3-neck reactor. […] Incubations were lead with or without presence of 10% (w/v) liver homogenate and 2 mM pyridoxal 5′-phosphate. A constant stream of nitrogen was passed through the mixture via a gas-inlet capillary. […] Khan et al., 1980). Reactions were initiated by transferring the tube from ice bath to a 37° C. water bath. The stream of nitrogen carried the sulfide acid in the second reactor containing 2 ml of SAOB as described previously. After incubating at 37° C. for 90 minutes, 1 ml of 50% trichloroacetic acid solution was added to mixture to stop the reaction. […] The concentration of sulfide in SAOB solution was measured with a sulfide sensitive electrode as previously described (Ubuka, 2002; Khan et al., 1980).

[11] = tested on: human platelet cAMP; test: Human platelet cAMP concentrations; type: cell-based; conditions: 3-100 μM, 10 minutes, IBMX 0.5 mM; versus vehicle; FIG. 21
Description: Platelet-rich plasma (PRP) was prepared as above. Aliquots of 400 μL of PRP were placed in glass tubes which contained IBMX (isobutyl-1-methylxanthine; 0.5 mM), an non-selective phosphodiesterase inhibitor. […] As a positive control, some aliquots of platelets were treated with forskolin (10 μM), a known stimulus of adenylate cyclase. Ten minutes later, the samples of PRP were centrifuged at 9,000 g for 2 min and the supernatant was discarded. The pellet was resuspended in buffer, sonicated for 2 min, then cAMP concentrations were determined using a specific enzyme-linked immunosorbent assay (Cayman Chemical Co., Ann Arbor, Mich., USA). Experiments were repeated 4-6 times for each concentration of each drug.

Nc1ccc(O)c(C(=O)O)c1 [mesalamine, reference compound]
pain perception score after glibenclamide pretreatment [1]: did not affect the pain perception | concentration in the colonic lumen [2]: up to 5 mM

COc1ccc2cc([C@H](C)C(=O)O)ccc2c1 [naproxen]
exudate PGE2 in the pouch (COX-2 activity) [3]: significantly suppressed COX-2 activity | increase in systolic blood pressure [4]: substantial increase in systolic blood pressure

NC(=S)c1ccc(OC(=O)Cc2ccccc2Nc2c(Cl)cccc2Cl)cc1 [Compound XVII, [2-(2,6-dichloro-phenylamino)-phenyl]-acetic acid 4-thiocarbamoyl-phenyl ester]
gastric damage score [5]: no gastric damage; also recorded: significantly less gastric damage than diclofenac | paw edema (paw volume increase) [6]: reduced paw edema to a greater extent; also recorded: comparable to the effect of diclofenac at a dose of 10 mg/kg | number of adherent leukocytes compared to the parent drug alone [7]: significantly reduced the number of adherent leukocytes | percent incidence of gastric damage compared to the parent drug alone ([8]; comment on Table 2): significantly reduced the percent incidence of gastric damage | Percent Incidence of Gastric Damage ([8]; intragastric 30 μmol/kg (naproxen and Compound XX 60 μmol/kg), end of experiment): 20% | gastric ulcer healing (ulcer surface area) [9]: significantly greater healing | H2S generated in liver homogenate ([10]; 10% (w/v) liver homogenate): greater release of H2S from Compound XVII than from TBZ | H2S generated in buffer ([10]; potassium phosphate buffer pH 7.4): significantly more release of H2S than an equivalent amount of TBZ | melting point: 170 to 172 °C

CCC(C)(C)C(=O)O[C@H]1C[C@@H](C)C=C2C=C[C@H](C)[C@H](CC[C@H]3C[C@H](OC(=O)CCC(=O)Oc4ccc(C(N)=S)cc4)CC(=O)O3)[C@H]21 [Compound I, Succinic acid 2-{2-[8-(2,2-dimethyl-butyryloxy)-2,6-dimethyl-1,2,6,7,8,8a-hexahydro-naphthalen-1-yl]-ethyl}-6-oxo-tetrahydro-pyran-4-yl ester 4-thiocarbamoyl-phenyl ester]
platelet cAMP [11]: significant increase in platelet cAMP at concentrations of 10, 30 and 100 μM

From patent US8314140B2, “4-hydroxythiobenzamide derivatives of drugs” (Antibe Therapeutics Inc., priority 2006, dated 2012)
